According to PubChem BioAssay AID330 (DTP/NCI, 2004):
Several values for one entry are separate records, joined by “and”; a condition that tells them apart may be missing. Equal values may be shown once. Toxic doses and inconclusive results are not listed. Rule for the calls: active = survival T/C of 150% or more; inactive = T/C below 125% in these data.

System: P388 leukemia ip, CD2F1 mice, survival T/C
Assay: NCI In Vivo Anticancer Drug Screen. Data for tumor model P388 Leukemia (intraperitoneal) in CD2F1 (CDF1) mice
Details: endpoint: median survival time, higher = longer survival
In short: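 Mice carrying the transplanted tumor received test compound or vehicle. Survival was recorded in each group, and the value is the treated-group measurement divided by that of the vehicle-treated control group.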

[1] = dose: 60.0 mg/kg/injection, schedule: Q01DX005 (ip), vehicle: saline with Tween-80
[2] = dose: 100.0 mg/kg/injection, schedule: Q04DX002 (ip), vehicle: saline
[3] = dose: 200.0 mg/kg/injection, schedule: Q04DX002 (ip), vehicle: saline
[4] = dose: 400.0 mg/kg/injection, schedule: Q04DX002 (ip), vehicle: saline
[5] = dose: 100.0 mg/kg/injection, schedule: Q01DX009 (ip), vehicle: saline with Tween-80
[6] = dose: 200.0 mg/kg/injection, schedule: Q01DX009 (ip), vehicle: saline with Tween-80

Measured: T/C

O=C(CBr)NC1OC(CO)C(O)C(O)C1O (configuration not stated)
inactive: dose: 2.5 mg/kg/injection, schedule: Q01DX009 (ip), vehicle: saline 99 % of control | dose: 5.0 mg/kg/injection, schedule: Q01DX009 (ip), vehicle: saline 112 % of control | dose: 10.0 mg/kg/injection, schedule: Q01DX009 (ip), vehicle: saline 108 % of control

Cc1[nH]c2ccccc2c1CC[n+]1cccc(C#N)c1
inactive: dose: 3.12 mg/kg/injection, schedule: Q01DX005 (ip), vehicle: Klucel (hydroxypropylcellulose) (HPC) 108 % of control | dose: 6.25 mg/kg/injection, schedule: Q01DX005 (ip), vehicle: Klucel (hydroxypropylcellulose) (HPC) 100 % of control | dose: 12.5 mg/kg/injection, schedule: Q01DX005 (ip), vehicle: Klucel (hydroxypropylcellulose) (HPC) 103 % of control

C1COCCSCCOCCOCCSCCO1
inactive: dose: 100.0 mg/kg/injection, schedule: Q04DX003 (ip), vehicle: Klucel (hydroxypropylcellulose) (HPC) 95 % of control | dose: 200.0 mg/kg/injection, schedule: Q04DX003 (ip), vehicle: Klucel (hydroxypropylcellulose) (HPC) 100 % of control | dose: 400.0 mg/kg/injection, schedule: Q04DX003 (ip), vehicle: Klucel (hydroxypropylcellulose) (HPC) 101 % of control

C[C@@H]1C[C@@H]([C@H](O)CC2CC(=O)NC(=O)C2)C(=O)[C@@H](C)C1
inactive: dose: 3.89 mg/kg/injection, schedule: Q01DX009 (ip), vehicle: Klucel (hydroxypropylcellulose) (HPC) 99 % of control and 108 % of control | dose: 6.48 mg/kg/injection, schedule: Q01DX009 (ip), vehicle: Klucel (hydroxypropylcellulose) (HPC) 102 % of control and 104 % of control | dose: 10.8 mg/kg/injection, schedule: Q01DX009 (ip), vehicle: Klucel (hydroxypropylcellulose) (HPC) 104 % of control and 117 % of control | dose: 12.5 mg/kg/injection, schedule: Q01DX009 (ip), vehicle: water 108 % of control and 115 % of control | dose: 18.0 mg/kg/injection, schedule: Q01DX009 (ip), vehicle: Klucel (hydroxypropylcellulose) (HPC) 106 % of control and 94 % of control | dose: 20.0 mg/kg/injection, schedule: Q01DX009 (ip), vehicle: water 92 % of control | dose: 23.3 mg/kg/injection, schedule: Q04DX003 (ip), vehicle: Klucel (hydroxypropylcellulose) (HPC) 102 % of control and 104 % of control | dose: 25.0 mg/kg/injection, schedule: Q01DX009 (ip), vehicle: water 117 % of control | dose: 30.0 mg/kg/injection, schedule: Q01DX009 (ip), vehicle: Klucel (hydroxypropylcellulose) (HPC) 113 % of control and 117 % of control | dose: 30.0 mg/kg/injection, schedule: Q01DX009 (ip), vehicle: water 95 % of control | dose: 38.9 mg/kg/injection, schedule: Q04DX003 (ip), vehicle: Klucel (hydroxypropylcellulose) (HPC) 111 % of control and 97 % of control | dose: 40.0 mg/kg/injection, schedule: Q01DX009 (ip), vehicle: water 100 % of control | dose: 50.0 mg/kg/injection, schedule: Q01DX009 (ip), vehicle: water 99 % of control | dose: 64.8 mg/kg/injection, schedule: Q04DX003 (ip), vehicle: Klucel (hydroxypropylcellulose) (HPC) 104 % of control and 95 % of control | dose: 80.0 mg/kg/injection, schedule: Q01DX009 (ip), vehicle: water 109 % of control | dose: 100.0 mg/kg/injection, schedule: Q01DX001 (ip), vehicle: saline 110 % of control | dose: 108.0 mg/kg/injection, schedule: Q04DX003 (ip), vehicle: Klucel (hydroxypropylcellulose) (HPC) 109 % of control | dose: 120.0 mg/kg/injection, schedule: Q01DX009 (ip), vehicle: water 92 % of control | dose: 125.0 mg/kg/injection, schedule: Q01DX001 (ip), vehicle: saline 113 % of control | dose: 150.0 mg/kg/injection, schedule: Q01DX001 (ip), vehicle: saline 112 % of control | dose: 175.0 mg/kg/injection, schedule: Q01DX001 (ip), vehicle: saline 112 % of control | dose: 180.0 mg/kg/injection, schedule: Q04DX003 (ip), vehicle: Klucel (hydroxypropylcellulose) (HPC) 97 % of control | dose: 200.0 mg/kg/injection, schedule: Q01DX001 (ip), vehicle: saline 112 % of control

COc1ccc(CC2=NCCc3cc(OC)c(OC)cc32)cc1OC
inactive: dose: 22.0 mg/kg/injection, schedule: Q01DX009 (ip), vehicle: saline 104 % of control | dose: 33.0 mg/kg/injection, schedule: Q01DX009 (ip), vehicle: saline 103 % of control | dose: 50.0 mg/kg/injection, schedule: Q01DX009 (ip), vehicle: saline 103 % of control | dose: 75.0 mg/kg/injection, schedule: Q01DX009 (ip), vehicle: saline 102 % of control

O=S1(=O)c2ccccc2N(c2ccccc2)C2=NCCN21
inactive: [1] 91 % of control | dose: 120.0 mg/kg/injection, schedule: Q01DX005 (ip), vehicle: saline with Tween-80 99 % of control | dose: 240.0 mg/kg/injection, schedule: Q01DX005 (ip), vehicle: saline with Tween-80 97 % of control

CCOC(C)n1c(C)nc2ccccc21 (configuration not stated)
inactive: [2] 99 % of control | [3] 101 % of control | [4] 97 % of control

CCCCCCCC(=O)Nc1nnc(SCCCCCCCCCCCCSc2nnc(NC(=O)CCCCCCC)s2)s1
inactive: dose: 50.0 mg/kg/injection, schedule: Q01DX005 (ip), vehicle: Klucel (hydroxypropylcellulose) (HPC) 90 % of control | dose: 100.0 mg/kg/injection, schedule: Q01DX005 (ip), vehicle: Klucel (hydroxypropylcellulose) (HPC) 89 % of control | dose: 200.0 mg/kg/injection, schedule: Q01DX005 (ip), vehicle: Klucel (hydroxypropylcellulose) (HPC) 86 % of control

C=CS(C=C)=NS(=O)(=O)c1ccc(C)cc1
inactive: dose: 6.25 mg/kg/injection, schedule: Q01DX009 (ip), vehicle: other 107 % of control and 110 % of control and 120 % of control | dose: 12.5 mg/kg/injection, schedule: Q01DX009 (ip), vehicle: other 107 % of control and 118 % of control and 120 % of control | dose: 25.0 mg/kg/injection, schedule: Q01DX009 (ip), vehicle: other 117 % of control

c1cc2cc(c1)CSCCCSCc1cccc(c1)CSCCCSC2
inactive: dose: 50.0 mg/kg/injection, schedule: Q04DX002 (ip), vehicle: saline 103 % of control | [2] 105 % of control | [3] 100 % of control

CNC(=O)OCc1c(COC(=O)NC)c(-c2ccccc2)n2c1CCC2
inactive: dose: 50.0 mg/kg/injection, schedule: Q01DX009 (ip), vehicle: Klucel (hydroxypropylcellulose) (HPC) 124 % of control | dose: 100.0 mg/kg/injection, schedule: Q01DX009 (ip), vehicle: Klucel (hydroxypropylcellulose) (HPC) 124 % of control

Cc1c2c(cn1C)NC(=O)CN=C2c1ccccc1
inactive: dose: 50.0 mg/kg/injection, schedule: Q01DX009 (ip), vehicle: saline with Tween-80 105 % of control | [5] 116 % of control | [6] 99 % of control

COc1ccc2nccc(NCCCN3CCN(CCCNc4ccnc5ccc(OC)cc45)CC3)c2c1
inactive: dose: 3.75 mg/kg/injection, schedule: Q01DX005 (ip), vehicle: water 104 % of control | dose: 7.5 mg/kg/injection, schedule: Q01DX005 (ip), vehicle: water 107 % of control | dose: 15.0 mg/kg/injection, schedule: Q01DX005 (ip), vehicle: water 99 % of control

CC1=C(S(=O)(=O)c2ccccc2)C(c2ccccc2)N(C)O1 (configuration not stated)
inactive: dose: 60.0 mg/kg/injection, schedule: Q01DX005 (ip), vehicle: Klucel (hydroxypropylcellulose) (HPC) 102 % of control | dose: 120.0 mg/kg/injection, schedule: Q01DX005 (ip), vehicle: Klucel (hydroxypropylcellulose) (HPC) 103 % of control | dose: 240.0 mg/kg/injection, schedule: Q01DX005 (ip), vehicle: Klucel (hydroxypropylcellulose) (HPC) 98 % of control

COc1cc(/C=C/c2ccc3ccccc3n2)cc(OC)c1OC
inactive: dose: 50.0 mg/kg/injection, schedule: Q04DX003 (ip), vehicle: saline with Tween-80 100 % of control | [5] 86 % of control | dose: 100.0 mg/kg/injection, schedule: Q04DX003 (ip), vehicle: saline with Tween-80 100 % of control | [6] 90 % of control | dose: 200.0 mg/kg/injection, schedule: Q04DX003 (ip), vehicle: saline with Tween-80 100 % of control

COCCOCCOCCOCCOCCOCCOCCOCCOCCOCCOCCOCCOCCOCCn1cc(F)c(=O)[nH]c1=O
inactive: [2] 100 % of control | [3] 101 % of control | [4] 104 % of control | dose: 800.0 mg/kg/injection, schedule: Q04DX002 (ip), vehicle: saline 100 % of control

COc1ccc2nc(N=Nc3ccc(N4CCOCC4)cc3C)sc2c1
inactive: dose: 100.0 mg/kg/injection, schedule: Q01DX001 (ip), vehicle: Klucel (hydroxypropylcellulose) (HPC) 86 % of control | dose: 200.0 mg/kg/injection, schedule: Q01DX001 (ip), vehicle: Klucel (hydroxypropylcellulose) (HPC) 86 % of control | dose: 400.0 mg/kg/injection, schedule: Q01DX001 (ip), vehicle: Klucel (hydroxypropylcellulose) (HPC) 88 % of control

Cc1ccc2cccc(OC(=O)Nc3ccc(C)c(NC(=O)Oc4cccc5ccc(C)nc45)c3)c2n1
inactive: dose: 15.0 mg/kg/injection, schedule: Q01DX005 (ip), vehicle: saline with Tween-80 95 % of control | dose: 30.0 mg/kg/injection, schedule: Q01DX005 (ip), vehicle: saline with Tween-80 97 % of control | [1] 99 % of control and 93 % of control
